ChEMBL document CHEMBL4483862, “Open-source discovery of chemical leads for next-generation chemoprotective antimalarials” (2018)

Test system: Plasmodium berghei
Experiment: Luciferase/luciferin-expressing antifolate-resistant parasites were used to infect a culture of HepG2 cells that were pre-incubated with compounds. Infected hepatocytes emit light due to the luciferase reaction. Assay results are presented as the percent inhibition of light emission compared to control. […]
Assay type: functional
Details: sporozoite; for IC90: read-out: LUCIFERASE INFECTION ASSAY - IC90
[1] = read-out: LUCIFERASE INFECTION ASSAY - IC50

Compound	IC90 [µM]	IC50 [1] [µM]	further results
CCCCc1ccc(C(=O)Nc2nc3ccccn3c2C(=O)NCCCN2CCOCC2)cc1	> 7.12		IC50 (PBLUC_HILL_SLOPE 0.361, PBLUC_R_SQUARED 0.518, read-out: LUCIFERASE INFECTION ASSAY - IC50): 2.21 µM
CNc1nc2cnc(Nc3cccc(NC(C)=O)c3)cc2n1-c1ccccc1	> 10		IC50 (HEPG2TOX_HILL_SLOPE 1.67, HEPG2TOX_R_SQUARED 0.953, read-out: LUCIFERASE INFECTION ASSAY - IC50): > 10 µM
Cc1[nH]ncc1CCCNc1nc(-c2ccsc2)nc2ccccc12	> 10		IC50 (PBLUC_HILL_SLOPE 1.72, 3.12, PBLUC_R_SQUARED 0.159, 0.360, read-out: LUCIFERASE INFECTION ASSAY - IC50): 5.35 µM
Clc1nc(NCc2ccc3c(c2)OCO3)c2[nH]cnc2n1	> 10.9		IC50 (PBLUC_HILL_SLOPE 2.33, PBLUC_R_SQUARED 0.359, read-out: LUCIFERASE INFECTION ASSAY - IC50): 9.8 µM
c1ccc(-c2csc3nc(-c4ccccn4)nc(NC4CC4)c23)cc1	4.93	2.32	
CC(C)c1ccc(CN2CCN(C(=O)CNC(=O)c3ccc(Br)o3)CC2)cc1	> 10		IC50 (PBLUC_HILL_SLOPE 3.89, PBLUC_R_SQUARED 0.276, read-out: LUCIFERASE INFECTION ASSAY - IC50): 9.05 µM
O=C(Nc1cc(Cl)cc(Cl)c1)c1ccccc1O	4.44	3.79	
CCn1c2ccccc2c2cc([N+](=O)[O-])ccc21	> 13.7		IC50 (HEPG2TOX_HILL_SLOPE 12, HEPG2TOX_R_SQUARED 0.261, PBLUC_HILL_SLOPE 16.8, PBLUC_R_SQUARED 0.0444, read-out: LUCIFERASE INFECTION ASSAY - IC50): 13.7 µM
OCc1ccc(-c2cnc3cnc(-c4cccc(F)c4)cn23)cc1	> 10.3	> 10.3	
CC(C)c1cccc(Nc2cc3c(cn2)nc(Nc2ccccc2)n3C)c1	> 10		IC50 (PBLUC_HILL_SLOPE 1.87, PBLUC_R_SQUARED 0.0991, read-out: LUCIFERASE INFECTION ASSAY - IC50): > 10 µM
CCCCOc1ccc(Nc2nc(C(N)COCc3ccccc3)cs2)nn1 (stereo not given)	> 8.26	> 8.26	
CCn1c(=O)c(=O)[nH]c2cc(C(=O)Nc3ccc(Oc4ccccc4)cc3)ccc21	> 10	> 10	
COc1ccc(/C=C2\CCCc3c2nc2ncnn2c3-c2ccc(OC)cc2)cc1	> 10	> 10	
c1cncc(-c2ccc3ncc(-c4cccnc4)n3n2)c1	2.92		IC50 (HEPG2TOX_HILL_SLOPE 1.17, HEPG2TOX_R_SQUARED 0.949, PBLUC_HILL_SLOPE 1.66, PBLUC_R_SQUARED 0.633, read-out: LUCIFERASE INFECTION ASSAY - IC50): 0.778 µM
Clc1ccccc1OCc1nnc(SCc2csc(-c3ccccc3)n2)o1	> 10	> 10	
O=C(N/N=C/c1ccc(F)cc1)c1ccc[n+]([O-])c1	> 10		IC50 (PBLUC_HILL_SLOPE 1.11, PBLUC_R_SQUARED 0.152, read-out: LUCIFERASE INFECTION ASSAY - IC50): 5.8 µM
CC(NC(=O)c1cnn(-c2ccc(C(F)(F)F)cn2)c1C(F)(F)F)C1CC2CCC1C2 (stereo not given)	5.3		IC50 (HEPG2TOX_HILL_SLOPE 11.2, HEPG2TOX_R_SQUARED 0.292, PBLUC_HILL_SLOPE 7.94, PBLUC_R_SQUARED 0.51, read-out: LUCIFERASE INFECTION ASSAY - IC50): 4.02 µM
CCC(CO)Nc1ccc2ncc(-c3ccc(OC)nc3)n2n1 (stereo not given)	5.43		IC50 (PBLUC_HILL_SLOPE 2.84, PBLUC_R_SQUARED 0.538, read-out: LUCIFERASE INFECTION ASSAY - IC50): 2.51 µM
O=C(CCCC(=O)Nc1cc(C(F)(F)F)cc(C(F)(F)F)c1)Nc1cc(C(F)(F)F)cc(C(F)(F)F)c1	> 5.95	1.07	
CC(=O)Nc1ccc(S(=O)(=O)N2CCCc3cc(C)ccc32)cc1	> 10		IC50 (HEPG2TOX_HILL_SLOPE 2.72, HEPG2TOX_R_SQUARED 0.907, PBLUC_HILL_SLOPE 2.8, PBLUC_R_SQUARED 0.127, read-out: LUCIFERASE INFECTION ASSAY - IC50): 5.79 µM
CNC(=O)c1cccc(-c2ccc3ncc(-c4cccc(OC(F)(F)F)c4)n3n2)c1	4.88		IC50 (PBLUC_HILL_SLOPE 8.51, PBLUC_R_SQUARED 0.256, read-out: LUCIFERASE INFECTION ASSAY - IC50): 3.77 µM
CSc1sc(C(=O)Sc2ccccc2)cc1S(=O)(=O)C(C)C	> 8.86	> 8.86	
CCNC(=O)C1(C)CCCN1Cc1ccc(-c2ccccc2)cc1 (stereo not given)	> 10.2		IC50 (HEPG2TOX_HILL_SLOPE 7.75, HEPG2TOX_R_SQUARED 0.0398, PBLUC_HILL_SLOPE 14.9, PBLUC_R_SQUARED 0.606, read-out: LUCIFERASE INFECTION ASSAY - IC50): 9.52 µM
CSc1sc(-c2ccnc(SCc3ccc(Cl)cc3)n2)c(-c2ccccc2)c1C#N	> 7.08		IC50 (PBLUC_HILL_SLOPE 3.73, PBLUC_R_SQUARED 0.295, read-out: LUCIFERASE INFECTION ASSAY - IC50): 4.71 µM
CCCN(CC(=O)Nc1cc(Cl)ccc1Cl)CC(=O)Nc1sccc1C(N)=O	> 10	> 10	

Compound	IC90 [µM]	IC50 [1] [µM]	further results
O=C(NNC(=O)c1ccc(CSc2ccc(C(F)(F)F)cn2)o1)c1ccc(Cl)cc1	> 7.24	> 7.24	
Cc1cc(OCC(=O)N(C)Cc2nc3ccsc3c(=O)[nH]2)ccc1C(C)C	> 10	> 10	
OC1CCN(c2ccnc3c(-c4ccc5ccccc5c4)cnn23)CC1	0.96		IC50 (PBLUC_HILL_SLOPE 1.1, PBLUC_R_SQUARED 0.73, read-out: LUCIFERASE INFECTION ASSAY - IC50): 0.129 µM
CC(C)(C)NC(=S)N/N=C/c1c(O)ccc2ccccc12	6.74	2.97	
CCOC(=O)c1sc(N(NC(=O)c2ccc(Cl)cc2)C(=O)c2ccc(Cl)cc2)c2c1CC(C)(C)CC2=O	2.02	1.81	
CCOCc1c(C(=O)NC2=C(C(=O)OCC)C(CC)=Nc3ccccc3N2)oc2ccccc12	8.81		IC50 (PBLUC_HILL_SLOPE 13.2, PBLUC_R_SQUARED 0.167, read-out: LUCIFERASE INFECTION ASSAY - IC50): 7.46 µM
CC(C)NC(=O)c1c(NC(=O)c2cccc(Cl)c2Cl)nc2ccccn12	> 8.43		IC50 (PBLUC_HILL_SLOPE 29.4, PBLUC_R_SQUARED 0.349, read-out: LUCIFERASE INFECTION ASSAY - IC50): 7.83 µM
Cc1nn(-c2ccccc2)c(C)c1C(=O)ONC(=N)c1cccc(Cl)c1	> 8.95		IC50 (PBLUC_HILL_SLOPE 7.89, PBLUC_R_SQUARED 0.243, read-out: LUCIFERASE INFECTION ASSAY - IC50): 7.68 µM
O=C(CN1CCN(Cc2csc(Nc3cccc(C(F)(F)F)c3)n2)CC1)N1CCCC1	> 10	> 10	
NC(=O)c1c(NC(=O)/C=C/c2cn(-c3ccccc3)nc2-c2cccnc2)sc2c1CCCC2	> 10	> 10	
Cc1cccc(C)c1-n1c(=C(C#N)C#N)s/c(=C/c2ccc(Cl)c([N+](=O)[O-])c2)c1=O	9.8		IC50 (FFLUC_HILL_SLOPE 2.98, FFLUC_R_SQUARED 0.465, HEPG2TOX_HILL_SLOPE 7.11, HEPG2TOX_R_SQUARED 0.701, PBLUC_HILL_SLOPE 34, PBLUC_R_SQUARED 0.394, read-out: LUCIFERASE INFECTION ASSAY - IC50): 9.19 µM
CC(=O)Nc1ccc(CC#N)cc1	> 18.9	> 18.9	
Cc1nn(-c2ccccc2)nc1C(=O)Nc1nc(CN2CCCCCC2)cs1	> 10	> 10	
Cc1cc(N2CCN(C(=O)c3cc(-c4ccccc4)nc4c3cnn4C(C)C)CC2)nc(C(C)C)n1	> 10		IC50 (FFLUC_HILL_SLOPE 16.4, FFLUC_R_SQUARED 0.735, read-out: LUCIFERASE INFECTION ASSAY - IC50): > 10 µM
Cc1ccc(CN(C)c2ccc([N+](=O)[O-])cc2Cl)o1	> 10	> 10	
COc1ccccc1-c1cc(C(=O)Nc2ccc(N3CCCC3)cc2)no1	> 10	> 10	
COc1ccc(-c2nc(-c3ccccc3)c(-c3ccccc3)[nH]2)cc1OCC(N)=O	> 10		IC50 (PBLUC_HILL_SLOPE 1.74, PBLUC_R_SQUARED 0.661, read-out: LUCIFERASE INFECTION ASSAY - IC50): 6.3 µM
Cc1nnsc1-c1onc(C)c1C(=O)NC(=O)Nc1ccccc1	> 9.61	4.69	
O=C(c1ccc(O)cc1)C1CCN(C(=O)c2cccc(N3CCCC3=O)c2)CC1	> 10	> 10	
N#Cc1cc(Br)c(OCc2c(F)cccc2Cl)c(Br)c1	6.23		IC50 (HEPG2TOX_HILL_SLOPE 16.7, HEPG2TOX_R_SQUARED 0.384, PBLUC_HILL_SLOPE 6.36, PBLUC_R_SQUARED 0.0513, read-out: LUCIFERASE INFECTION ASSAY - IC50): 4.41 µM
FC(F)(F)c1ccc(NCCNc2ccc(C(F)(F)F)cn2)nc1	2.55	1.24	
O=C(NCCN1CCN(c2ncnc3sc4c(c23)CCC4)CC1)c1ccco1	> 10	> 10	
Cc1c(S(=O)(=O)c2ccc(Cl)cc2)csc1C(=O)N1CC(C)OC(C)C1 (stereo not given)	> 7.97	> 7.97	
COc1ccc(CN2C(=O)c3ccccc3C(C=NNc3nc(=O)cc(C)[nH]3)C2=O)cc1 (stereo not given)	3.8		IC50 (HEPG2TOX_HILL_SLOPE 12.8, HEPG2TOX_R_SQUARED 0.611, PBLUC_HILL_SLOPE 3.06, PBLUC_R_SQUARED 0.688, read-out: LUCIFERASE INFECTION ASSAY - IC50): 1.85 µM
Cc1ccc(-c2cs/c(=N\CCN3CCOCC3)n2/N=C/c2cccs2)cc1C	> 10		IC50 (HEPG2TOX_HILL_SLOPE 0.856, HEPG2TOX_R_SQUARED 0.317, read-out: LUCIFERASE INFECTION ASSAY - IC50): > 10 µM
